Where two headings read alike, the source gives them in different places.
What was measured:
Type in all cases: in vivo
[1] = system: Venturia inaequalis (apple scab); experiment: Test 1 greenhouse foliar spray screen, apple scab on apple seedling; details: for APPL SCAB: disease control rating, foliar spray on apple seedling, 400 ppm (+++ at 100 ppm); for pest or weed control at 400 ppm: Venturia inaequalis, Test 1, foliar spray on apple seedling, disease control rating at 400 ppm / 100 ppm, read-out: APPL SCAB
[2] = system: Pseudoperonospora cubensis (downy mildew); experiment: Test 1 greenhouse foliar spray screen, downy mildew on squash; details: for activity against downy mildew: summary statement in the description
[3] = system: Twospotted spider mites (Tetranychus urticae Koch); experiment: Mite/insect screen, SM
Summary of the method: (§1)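 Foliar spray to runoff (10 psi), 1 h drying; aqueous dilutions from acetone/alcohol emulsifier stock. Mortality (%) after standard exposure.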

[4] = system: Puccinia recondita tritici (leaf rust); experiment: Test 1 greenhouse foliar spray screen, leaf rust on wheat
[5] = system: corn rootworm; experiment: Mite/insect screen, CRW; details: percent mortality, read-out: CRW RESULTS %
Summary of the method: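 Following dissolution in equal parts acetone and alcohol with 23 g/L and 13 g/L emulsifier blends and dilution with water, test solutions were scored for percent mortality at the end of standard exposures.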

[6] = system: Phytophthora infestans; details: field test
[7] = system: Pyrenophora teres; experiment: Field tests against plant pathogens; details: field test, crop barley
Description: (§2) Selected compounds were field tested against a variety of plant pathogens. […]

[8] = system: southern armyworm (Spodopetra eridania Cramer); experiment: Mite/insect screen, SAW; details: percent mortality
Summary of the method: as §1

[9] = system: Botrytis cinerea (gray mold); experiment: Test 1 greenhouse foliar spray screen, gray mold on grape berries; details: for GRAY MOLD: disease control rating, spray on grape berries, 400 ppm (+++ at 100 ppm); for pest or weed control at 400 ppm: Botrytis cinerea, foliar, Test 1, spray on grape berries, disease control rating at 400 ppm / 100 ppm
[10] = system: Septoria tritici (leaf blotch); experiment: Test 1 greenhouse foliar spray screen, leaf blotch on wheat; details: for LEAF BLOT: disease control rating, foliar spray on wheat, 400 ppm (+++ at 100 ppm); for pest or weed control at 400 ppm: Zymoseptoria tritici, Test 1, foliar spray on wheat, disease control rating at 400 ppm / 100 ppm, read-out: LEAF BLOT
[11] = system: Erysiphe graminis tritici (powdery mildew); experiment: Test 1 greenhouse foliar spray screen, powdery mildew on wheat
[12] = system: Pyricularia oryzae (rice blast); experiment: whole plant or invertebrate; details: for activity against rice blast: summary statement in the description
[13] = system: melon aphids (Aphis gossypii Glover); experiment: Mite/insect screen, MA; details: percent mortality
Summary of the method: as §1

[14] = system: Cercospora beticola (leaf spot); experiment: Test 1 greenhouse foliar spray screen, leaf spot on sugar beet; details: for LEAF SPOT: disease control rating, foliar spray on sugar beet, 400 ppm (+++ at 100 ppm); for pest or weed control at 400 ppm: Cercospora beticola, Test 1, foliar spray on sugar beet, disease control rating at 400 ppm / 100 ppm
[15] = system: Pseudocercosporella herpotrichoides; experiment: Field tests against plant pathogens; details: field test, crop wheat
Description: as §2

[16] = system: Sphaerotheca fuliginea; experiment: Field tests against plant pathogens; details: field test, crop cucumber
Description: as §2

[17] = system: Rhynchosporium secalis; experiment: Field tests against plant pathogens; details: field test, crop barley
Description: as §2

[18] = system: Erysiphe graminis tritici; experiment: Field tests against plant pathogens; details: field test, crop wheat
Description: as §2

[19] = system: Plasmopara viticola; experiment: Field tests against plant pathogens; details: field test, crop grape
Description: as §2

[20] = system: plant pathogens; experiment: Fungicidal efficacy against a broad spectrum of plant pathogens (summary of screen); details: summary statement in the description
[21] = disease control rating, foliar spray on squash, 400 ppm (+++ at 100 ppm)
[22] = Tetranychus urticae, percent mortality, SAW, SM & MA RATE 200 PPM, read-out: SM RESULTS %
[23] = disease control rating, foliar spray on wheat, 400 ppm (+++ at 100 ppm)
[24] = Spodoptera eridania, SAW, SM & MA RATE 200 PPM, read-out: SAW RESULTS %
[25] = disease control rating, foliar spray on rice, 400 ppm (+++ at 100 ppm)
[26] = Aphis gossypii, SAW, SM & MA RATE 200 PPM, read-out: MA RESULTS %
[27] = Tetranychus urticae, foliar, percent mortality, rate 200 ppm, foliar spray on squash, read-out: SM RESULTS %
[28] = Spodoptera eridania, foliar, rate 200 ppm, foliar spray on squash, read-out: SAW RESULTS %
[29] = Aphis gossypii, foliar, rate 200 ppm, foliar spray on squash, read-out: MA RESULTS %
[30] = Test 1, foliar spray on wheat, disease control rating at 400 ppm / 100 ppm
[31] = rate 400 ppm, foliar spray on squash

Row | SMILES | APPL SCAB [1] | DOWN MDEW [2, 21] | mortality at 200 ppm [3, 22] | LEAF RUST [4, 23] | mortality at 12 ppm ([5]; CRW RATE 12.00 PPM) | pathogens against which compounds of the invention showed activity [7] | mortality at 200 ppm [8, 24] | GRAY MOLD [9] | LEAF BLOT [10] | POWD MDEW [11, 23] | RICE BLAST [12, 25] | mortality at 200 ppm [13, 26] | LEAF SPOT [14] | pathogens against which compounds of the invention showed activity [15] | pathogens against which compounds of the invention showed activity [16] | pathogens against which compounds of the invention showed activity [17] | pathogens against which compounds of the invention showed activity [18] | activity against rice blast [12] | mortality at 12 ppm ([5]; CRW rate 12.00 ppm) | mortality at 200 ppm [8, 28] | further results
1 | c1ccc(CCNc2ccnc3ccccc23)cc1 [Example 2, N-(2-phenylethyl)-4-quinolinamine] | - (0-19% control at 400 ppm) | +++ (90-100% control at 100 ppm) | 0% | - (0-19% control at 400 ppm) | 0% | Pyrenophora teres | 0% | - (0-19% control at 400 ppm) | - (0-19% control at 400 ppm) | - (0-19% control at 400 ppm) | - (0-19% control at 400 ppm) | 0% | – | – | – | – | – | – | – | – | pathogens against which compounds of the invention showed activity ([6]; crop potato): Phytophthora infestans; pathogens against which compounds of the invention showed activity ([6]; crop tomato): Phytophthora infestans
2 | CC(=O)N(CCc1ccc(Cl)cc1)c1ccnc2c(F)cccc12 [Example 10, N-[2-(4-chlorophenyl)ethyl]-N-(8-fluoro-4-quinolinyl)acetamide] | - (0-19% control at 400 ppm) | ++ (90-100% control at 400 ppm) | 0% | +++ (90-100% control at 100 ppm) | 0% | Pyrenophora teres | 0% | - (0-19% control at 400 ppm) | +++ (90-100% control at 100 ppm) | ++ (90-100% control at 400 ppm) | +++ (90-100% control at 100 ppm) | 0% | +++ (90-100% control at 100 ppm) | Pseudocercosporella herpotrichoides | Sphaerotheca fuliginea | Rhynchosporium secalis | Erysiphe graminis tritici | particularly excellent activity | – | – | mortality at 400 ppm ([3]; Tetranychus urticae, percent mortality, SAW, SM & MA RATE 400 PPM, read-out: SM RESULTS %): 0%; mortality at 24 ppm ([5]; CRW RATE 24.00 PPM): 0%; mortality at 400 ppm ([8]; Spodoptera eridania, SAW, SM & MA RATE 400 PPM, read-out: SAW RESULTS %): 0%; mortality at 400 ppm ([13]; Aphis gossypii, SAW, SM & MA RATE 400 PPM, read-out: MA RESULTS %): 0%
3 | Fc1cccc2c(NCCc3ccccc3C(F)(F)F)ccnc12 [Example 97, 8-fluoro-N-[2-[2-(trifluoromethyl)phenyl]ethyl]-4-quinolinamine] | - (0-19% control at 400 ppm) | +++ (90-100% control at 100 ppm) | 0% | +++ (90-100% control at 100 ppm) | 0% | – | 0% | - (0-19% control at 400 ppm) | +++ (90-100% control at 100 ppm) | + (20-89% control at 400 ppm) | +++ (90-100% control at 100 ppm) | 0% | +++ (90-100% control at 100 ppm) | – | – | – | – | – | – | – | activity against downy mildew [2]: particularly excellent activity; pathogens against which compounds of the invention showed activity [19]: Plasmopara viticola
4 | Fc1cccc2c(NCCc3cccs3)ccnc12 [Example 173, 8-fluoro-N-[2-(2-thienyl)ethyl]-4-quinolinamine] | - (0-19% control at 400 ppm) | +++ (90-100% control at 100 ppm) | – | ++ (90-100% control at 400 ppm) | – | – | – | - (0-19% control at 400 ppm) | + (20-89% control at 400 ppm) | + (20-89% control at 400 ppm) | + (20-89% control at 400 ppm) | – | +++ (90-100% control at 100 ppm) | – | – | – | – | – | 0% | 0% | activity against downy mildew [2]: particularly excellent activity; mortality at 200 ppm [3, 27]: 0%; pathogens against which compounds of the invention showed activity [19]: Plasmopara viticola; mortality at 200 ppm [13, 29]: 0%
5 | Fc1cccc2c(OCCc3ccc(-c4ccccc4)cc3)ccnc12 [Example 200] | – | – | – | – | – | Pyrenophora teres | – | – | – | – | – | – | – | Pseudocercosporella herpotrichoides | Sphaerotheca fuliginea | Rhynchosporium secalis | Erysiphe graminis tritici | particularly excellent activity | 0% | 0% | pest or weed control at 400 ppm [1]: 20 to 89%; DOWN MDEW ([2]; Test 1, foliar spray on squash, disease control rating at 400 ppm / 100 ppm): + (20-89% control at 400 ppm); SM RESULTS % ([3]; percent mortality, rate 200 ppm, foliar spray on squash): 100%; SM RESULTS % ([3]; percent mortality, rate 400 ppm, foliar spray on squash): 100%; activity as miticides ([3]; summary statement in the description): particularly excellent activity; LEAF RUST [4, 30]: +++ (90-100% control at 100 ppm); mortality at 24 ppm ([5]; CRW rate 24.00 ppm): 0%; pest or weed control at 400 ppm [14]: 20 to 89%; SAW RESULTS % [8, 31]: 50%; pest or weed control at 400 ppm [9]: 0 to 19%; pest or weed control at 400 ppm [10]: 90 to 100%; POWD MDEW [11, 30]: +++ (90-100% control at 100 ppm); RICE BLAST ([12]; Test 1, foliar spray on rice, disease control rating at 400 ppm / 100 ppm): +++ (90-100% control at 100 ppm); MA RESULTS % ([13]; rate 200 ppm, foliar spray on squash): 100%; MA RESULTS % [13, 31]: 100%
6 | Fc1cccc2c(OCCc3ccccc3)ccnc12 [Example 219, 8-fluoro-4-(2-phenylethoxy)quinoline] | – | – | – | – | – | Pyrenophora teres | – | – | – | – | – | – | – | Pseudocercosporella herpotrichoides | Sphaerotheca fuliginea | Rhynchosporium secalis | Erysiphe graminis tritici | – | 0% | 0% | pest or weed control at 400 ppm [1]: 20 to 89%; pest or weed control at 400 ppm ([2]; Pseudoperonospora cubensis, foliar, Test 1, foliar spray on squash, disease control rating at 400 ppm / 100 ppm, read-out: DOWN MDEW): 90 to 100%; mortality at 200 ppm [3, 27]: 0%; pest or weed control at 400 ppm ([4]; Puccinia recondita, foliar, Test 1, foliar spray on wheat, disease control rating at 400 ppm / 100 ppm): 90 to 100%; pest or weed control at 400 ppm [14]: 20 to 89%; activity against a broad spectrum of plant pathogens [20]: particularly excellent activity; pest or weed control at 400 ppm [9]: 0 to 19%; pest or weed control at 400 ppm [10]: 20 to 89%; pest or weed control at 400 ppm ([11]; Blumeria graminis, foliar, Test 1, foliar spray on wheat, disease control rating at 400 ppm / 100 ppm, read-out: POWD MDEW): 90 to 100%; pest or weed control at 400 ppm ([12]; Pyricularia oryzae, foliar, read-out: RICE BLAST, Test 1, foliar spray on rice, disease control rating at 400 ppm / 100 ppm): 90 to 100%; mortality at 200 ppm [13, 29]: 0%

Reference: patent EP0326331B1, “Substituted quinolines and cinnolines” (Dow AgroSciences LLC, priority 1988, dated 1989)
